This is an account of results in US20140031296A1, “NEW SYNTHETIC PEPTIDES AND THEIR USE” (PERGAMUM AB, priority 2011, published 2014).

One experiment deals with P. acnes (CCUG 1794T). In words: MMC99 assay, P. acnes. It counts as cell-based. The procedure: (§1) The antimicrobial effects of the peptides 232 (SEQ ID NO: 78), and 220 (SEQ ID NO:67) were analysed by MMC99 (minimal microbicidal concentration) assay against S. aureus (CCUG 1800), MRSA (CCUG 41879), P. aeruginosa (ATCC 15442), E. coli (CCUG 31246), S. pyogenes (CCUG 4207), P. acnes (CCUG 1794T), S. epidermidis (ATCC12228), K. pneumoniae (ATCC 13883), A. baumannii (ATCC 19606), and C. albicans (ATCC 64549). The peptides were purchased from Biopeptide Company (San Diego, Calif., USA) and Bachem AG (Bubendorf, Switzerland) and results are presented in Table 8A and 8B respectively.
(§2) Peptides were serially diluted in two different assay medium, 1% BHI medium (brain-heart infusion medium) or 50% heat inactivated simulated wound fluid (SWF), and thereafter incubated with the microorganisms for 2 hours. Drops of the suspension were placed on blood agar plates. The MMC99 values, i.e. the lowest peptide concentration needed to achieve a 99% reduction of viable microorganisms, were recorded. As presented in Table 8, all the peptides have the ability to kill microorganisms frequently appearing in infections.

For experiment [1], the system named is MRSA (CCUG 41879). In words: MMC99 assay, MRSA. Format: cell-based. The protocol: as §1, §2
Experiment [2] concerns MRSA (CCUG 41879). Briefly: In vivo antimicrobial effect in excision wound model in rats. More on the design: species or system rat. The following applies: peptide in H2O 0.1, 0.5 and 2 mg/ml, single administration, 2 hours. The text has this:
FIG. 4. Dose-response effect of peptide 232 (SEQ ID NO 78)(A) and peptide 220 (SEQ ID NO 67)(B) on bacterial colonization of infected excision wounds in rats. […] Results are presented as relative bacterial survival (%) compared to control group±SEM (n=15 wounds). Statistical significance was estimated by Student's t test. *=p<0.05, **=p<0.01, ***=p<0.001.
The in vivo antimicrobial effects of the peptide 232 (SEQ ID NO: 78), and the peptide 220 (SEQ ID NO:67) were investigated in an excision wound model in rats. The wounds were inoculated with methicillin resistant S. aureus (MRSA) for two hours, followed by a single administration of peptide or control (H2O) for two hours before termination and harvest of the bacteria.

The next experiment deals with S. pyogenes (CCUG 4207). Briefly: MMC99 assay, S. pyogenes. Format: cell-based. The procedure:
as §1, §2

The test system of experiment [3] is S. epidermidis (ATCC12228). In words: MMC99 assay, S. epidermidis. It counts as cell-based. The protocol: as §1, §2
For experiment [4], the system named is A. baumannii (ATCC 19606). In words: MMC99 assay, A. baumannii. It counts as cell-based. The protocol: as §1, §2
The subject of experiment [5] is K. pneumoniae (ATCC 13883). Briefly: MMC99 assay, K. pneumoniae. Format: cell-based. The procedure: as §1, §2
Another experiment has as its system C. albicans (ATCC 64549). In words: MMC99 assay, C. albicans. It counts as cell-based. The procedure: as §1, §2

Entries after “also recorded” stand apart in the source; their conditions may differ. Some results are limits rather than exact numbers.

On to QSLARKLFQWLRNLRKVA [Peptide 220], for which the MMC99 was less than 3 µg/mL with P. acnes (CCUG 1794T) (1% BHI); 100 µg/mL in the experiment with P. acnes (CCUG 1794T) (50% SWF); 6 µg/mL with MRSA (CCUG 41879) [1] (1% BHI); 200 µg/mL with MRSA (CCUG 41879) [1] (50% SWF); less than 3 µg/mL in the experiment with S. pyogenes (CCUG 4207) (1% BHI); 50 µg/mL in the experiment with S. pyogenes (CCUG 4207) (50% SWF). For the same sequence, in the experiment on MRSA (CCUG 41879) [2], the “bacterial colonization of infected excision wounds (bacterial counts vs control)” value is “significant reduction in bacterial counts; also recorded: pronounced antimicrobial effect”.
Take RRLWRRWMRKVL [Peptide 232]: the MMC99 in the experiment on P. acnes (CCUG 1794T) (1% BHI) was 6 µg/mL; in the experiment with P. acnes (CCUG 1794T) (50% SWF), greater than 200 µg/mL; with MRSA (CCUG 41879) [1] (1% BHI) it was 6 µg/mL; in the experiment on MRSA (CCUG 41879) [1] (50% SWF), 100 µg/mL; in experiment [3] (1% BHI) it was 3 µg/mL; in experiment [3] (50% SWF) it was 50 µg/mL. The MMC99 was 3 µg/mL in experiment [4] (1% BHI); 200 µg/mL in experiment [4] (50% SWF); 6 µg/mL in experiment [5] (1% BHI); greater than 200 µg/mL in experiment [5] (50% SWF); less than 3 µg/mL with S. pyogenes (CCUG 4207) (1% BHI); greater than 200 µg/mL with S. pyogenes (CCUG 4207) (50% SWF). Moreover, the results for the MMC99 in the experiment on C. albicans (ATCC 64549) (1% BHI) and with C. albicans (ATCC 64549) (50% SWF) were 3 µg/mL and 50 µg/mL, respectively. The “bacterial colonization of infected excision wounds (bacterial counts vs control)” value in the experiment with MRSA (CCUG 41879) [2] is on record as “significant reduction in bacterial counts; also recorded: pronounced antimicrobial effect”.
